Experimental data as given in publication PMC8449061, “A structural model for (GlcNAc)2 translocation via a periplasmic chitooligosaccharide-binding protein from marine Vibrio bacteria” (The Journal of Biological Chemistry, 2021).

What was measured:
Assay type in all cases: binding
VhCBP WT = test: ITC titration of WT VhCBP with (GlcNAc)2–4; settings: for ΔG° / ΔH° / −TΔS° / Kd: 20 mM Tris-HCl pH 8.0, 25 °C; for ΔG° / ΔH° / −TΔS°: mean ± SD; for Kd: n fixed at 1, mean ± SD of three experiments; for fold lower affinity than (GlcNAc)2: from Kd values
Experimental: We previously reported ITC data for (GlcNAc)2–4 binding to VhCBP in 20 mM potassium phosphate, pH 8.0, at 4 °C ([13]). Here, we re-evaluated the ITC data by conducting binding experiments in Tris HCl, pH 8.0, at 25 °C using (GlcNAc)n (n = 2–4) as the ligands. The binding interactions for individual ligands were determined assuming a 1:1 stoichiometry.
(§1) Figure 5 ITC profiles obtained from (GlcNAc)2titration using VhCBP WT and mutants. Thermograms (upper) and binding isotherms with theoretical fits (lower) of the individual titrations are presented. Titration experiments were conducted in 20 mM Tris HCl, pH 8.0, at 25 °C. ITC, isothermal titration calorimetry. VhCBP, CBP from Vibrio campbellii type strain ATCC BAA-1116.
(§2) ITC experiments were conducted by titrating 200 μM (GlcNAc)n (n = 2, 3, or 4) solutions from the injection syringe into 20 μM WT VhCBP in the sample cell. The titrations were performed in 20 mM Tris-HCl buffer, pH 8.0, by a PEAQ-ITC (Malvern Instruments) using the operational software installed in the equipment. Briefly, the temperature in the sample cell was maintained at 25 °C, and the difference in temperature (ΔT) between the reference cell and the sample cell was compensated by heaters fitted to the cells. The compensation energy utilized per second was plotted against experimental time. Peak integrations of the individual troughs were replotted against the molar ratio of the ligand to protein. The binding isotherm thus obtained was used for data-fitting analysis using the ‘One-Set of Sites’ model defined in MicroCal PEAQ-ITC Analysis Software to obtain Kd, ΔG°, ΔH°, and ΔS° terms. […] Titrations of (GlcNAc)2 to the individual VhCBP mutants were performed as described for the WT protein.
Table S2: ITC experimental conditions for titration of VhCBP and its mutants with (GlcNAc) 2-4 . […]

VhCBP D365A = test: ITC titration of VhCBP mutant D365A with (GlcNAc)2
Text: (§3) These proteins were used for ITC binding experiments with (GlcNAc)2 as the ligand. […] Degrees of conservation among five members of cluster/subcluster C-IV SBPs (VhCBP, VcCBP, TmCeBP, TmMnBP1, and TmMnBP2) are also represented by coloring dark red (high degree of conservation) to pale red (moderate degree of conservation) to white (low degree of conservation).
as §1, §2
(§4) Table S2: ITC experimental conditions for titration of VhCBP and its mutants with (GlcNAc) 2-4 .
(§5) Table S3: Conditions for co-crystallization of VhCBP mutants with (GlcNAc) 2.

VhCBP N204A = test: ITC titration of VhCBP mutant N204A with (GlcNAc)2
Text: as §3, §1, §2, §4, §5

VhCBP S221A = test: ITC titration of VhCBP mutant S221A with (GlcNAc)2
Text: as §3, §1, §2, §4, §5

VhCBP W513A = test: ITC titration of VhCBP mutant W513A with (GlcNAc)2
Text: as §3, §1, §2, §4, §5

VhCBP W363A/W513A = test: ITC titration of VhCBP double mutant W363A/W513A with (GlcNAc)2; settings: 20 mM Tris HCl pH 8.0, 25 °C
Text: To evaluate the contributions of the amino acid residues in (GlcNAc)2 binding, we carried out site-directed mutagenesis to substitute the designated residues and successfully produced nine single mutants, E10A, N204A, S221A, W363A, D365A, N409A, F411A, F437A, and W513A, and one double mutant, W363A/W513A. All proteins were purified to homogeneity by Ni-NTA affinity chromatography, followed by gel filtration, and their purities were checked by SDS-PAGE analysis (Fig. S2). These proteins were used for ITC binding experiments with (GlcNAc)2 as the ligand. […] The effects on ΔG° in the other mutants (E10A, N204A, S221A, N409A, and F411A) were moderate, although one mutation had been introduced into an amino acid with a high degree of conservation (Asn^204). Changes in ΔG° (ΔΔG°) resulting from all the mutations were mapped on the structure of VhCBP in complex with (GlcNAc)2 as shown in Figure 6B. Degrees of conservation among five members of cluster/subcluster C-IV SBPs (VhCBP, VcCBP, TmCeBP, TmMnBP1, and TmMnBP2) are also represented by coloring dark red (high degree of conservation) to pale red (moderate degree of conservation) to white (low degree of conservation).
Figure 5 ITC profiles obtained from (GlcNAc)2titration using VhCBP WT and mutants. Thermograms (upper) and binding isotherms with theoretical fits (lower) of the individual titrations are presented. […]

VhCBP N409A = test: ITC titration of VhCBP mutant N409A with (GlcNAc)2
Text: as §3, §1, §2, §4, §5

VhCBP W363A = test: ITC titration of VhCBP mutant W363A with (GlcNAc)2
Text: as §3, §1, §2, §4, §5

VhCBP F411A = test: ITC titration of VhCBP mutant F411A with (GlcNAc)2
Text: as §3, §1, §2, §4, §5

VhCBP E10A = test: ITC titration of VhCBP mutant E10A with (GlcNAc)2
Text: as §3, §1, §2, §4, §5

VhCBP F437A = test: ITC titration of VhCBP mutant F437A with (GlcNAc)2
Text: as §3, §1, §2, §4, §5

CC(=O)N[C@H]1[C@H](O[C@H]2[C@H](O)[C@@H](NC(C)=O)C(O)O[C@@H]2CO)O[C@H](CO)[C@@H](O[C@@H]2O[C@H](CO)[C@@H](O)[C@H](O)[C@H]2NC(C)=O)[C@@H]1O (stereo partly drawn) [(GlcNAc)3]
ΔG° (VhCBP WT): -9.7 ± 0.3 kcal/mol
ΔH° (VhCBP WT): -4.7 ± 0.1 kcal/mol
−TΔS° (VhCBP WT): -5.0 ± 0.3 kcal/mol
Kd (VhCBP WT): 90 ± 50 nM
fold lower affinity than (GlcNAc)2 (VhCBP WT): 3 fold

CC(=O)N[C@H]1[C@H](O[C@H]2[C@H](O)[C@@H](NC(C)=O)C(O)O[C@@H]2CO)O[C@H](CO)[C@@H](O[C@@H]2O[C@H](CO)[C@@H](O[C@@H]3O[C@H](CO)[C@@H](O)[C@H](O)[C@H]3NC(C)=O)[C@H](O)[C@H]2NC(C)=O)[C@@H]1O (stereo partly drawn) [(GlcNAc)4]
ΔG° (VhCBP WT): -8.8 ± 0.3 kcal/mol
ΔH° (VhCBP WT): -4.8 ± 0.6 kcal/mol
−TΔS° (VhCBP WT): -4.0 ± 1.0 kcal/mol
Kd (VhCBP WT): 400 ± 240 nM
fold lower affinity than (GlcNAc)2 (VhCBP WT): 12 fold

CC(=O)N[C@H]1[C@H](O[C@H]2[C@H](O)[C@@H](NC(C)=O)C(O)O[C@@H]2CO)O[C@H](CO)[C@@H](O)[C@@H]1O (stereo partly drawn) [(GlcNAc)2]
ΔΔG° (VhCBP D365A; D365A versus WT): +8.6 ± 0.3 kcal.mol^−1
Kd (VhCBP D365A; ITC, D365A, 20 mM Tris-HCl pH 8.0, 25 °C, mean ± SD): 65 mM
ΔG° (VhCBP D365A; ITC, D365A, pH 8.0, 25 °C): -1.6 ± 0.0 kcal/mol
ΔH° (VhCBP D365A; ITC, D365A, pH 8.0, 25 °C): -11.3 ± 0.4 kcal/mol
−TΔS° (VhCBP D365A; ITC, D365A, pH 8.0, 25 °C): 9.7 ± 0.4 kcal/mol
Kd (VhCBP N204A; ITC, N204A, 20 mM Tris-HCl pH 8.0, 25 °C, mean ± SD): 830 ± 170 nM
ΔG° (VhCBP N204A; ITC, N204A, pH 8.0, 25 °C): -8.3 ± 0.1 kcal/mol
ΔH° (VhCBP N204A; ITC, N204A, pH 8.0, 25 °C): -0.75 ± 0.05 kcal/mol
−TΔS° (VhCBP N204A; ITC, N204A, pH 8.0, 25 °C): -7.6 ± 0.2 kcal/mol
ΔΔG° (VhCBP N204A; N204A versus WT): +2.1 ± 0.3 kcal.mol^−1
Kd (VhCBP S221A; ITC, S221A, 20 mM Tris-HCl pH 8.0, 25 °C, mean ± SD): 70 ± 60 nM
ΔG° (VhCBP S221A; ITC, S221A, pH 8.0, 25 °C): -10.2 ± 1.0 kcal/mol
ΔH° (VhCBP S221A; ITC, S221A, pH 8.0, 25 °C): -5.3 ± 0.7 kcal/mol
−TΔS° (VhCBP S221A; ITC, S221A, pH 8.0, 25 °C): -4.9 ± 1.4 kcal/mol
ΔΔG° (VhCBP S221A; S221A versus WT): +0.1 ± 1.0 kcal.mol^−1
Kd (VhCBP W513A; ITC, W513A ('half-open'/semiopen state), 20 mM Tris-HCl pH 8.0, 25 °C, mean ± SD): 36.8 ± 7.4 µM
ΔG° (VhCBP W513A; ITC, W513A, pH 8.0, 25 °C): -6.1 ± 0.1 kcal/mol
ΔH° (VhCBP W513A; ITC, W513A, pH 8.0, 25 °C): -5.8 ± 0.0 kcal/mol
−TΔS° (VhCBP W513A; ITC, W513A, pH 8.0, 25 °C): -0.3 ± 0.1 kcal/mol
lower affinity of semiopen state than the closed state (VhCBP W513A; W513A (semiopen) versus WT (closed), from Kd): 1200
ΔΔG° (VhCBP W513A; W513A versus WT): +4.2 ± 0.3 kcal.mol^−1
binding detected by ITC (ND represents no detectable binding) (VhCBP W363A/W513A): did not exhibit any clear heat release
ΔG° (VhCBP WT): -10.3 ± 0.3 kcal/mol
ΔH° (VhCBP WT): -3.9 ± 0.1 kcal/mol
−TΔS° (VhCBP WT): -6.4 ± 0.2 kcal/mol
Kd (VhCBP WT): 30 ± 10 nM
Kd (VhCBP N409A; ITC, N409A, 20 mM Tris-HCl pH 8.0, 25 °C, mean ± SD): 450 ± 100 nM
ΔG° (VhCBP N409A; ITC, N409A, pH 8.0, 25 °C): -8.7 ± 0.1 kcal/mol
ΔH° (VhCBP N409A; ITC, N409A, pH 8.0, 25 °C): -9.6 ± 0.6 kcal/mol
−TΔS° (VhCBP N409A; ITC, N409A, pH 8.0, 25 °C): 1.0 ± 0.7 kcal/mol
ΔΔG° (VhCBP N409A; N409A versus WT): +1.6 ± 0.2 kcal.mol^−1
Kd (VhCBP W363A; ITC, W363A, 20 mM Tris-HCl pH 8.0, 25 °C, mean ± SD): 80.2 ± 19.9 µM
ΔG° (VhCBP W363A; ITC, W363A, pH 8.0, 25 °C): -5.6 ± 0.1 kcal/mol
ΔH° (VhCBP W363A; ITC, W363A, pH 8.0, 25 °C): -1.9 ± 1.8 kcal/mol
−TΔS° (VhCBP W363A; ITC, W363A, pH 8.0, 25 °C): -3.7 ± 2.0 kcal/mol
ΔΔG° (VhCBP W363A; W363A versus WT): +4.7 ± 0.4 kcal.mol^−1
ΔΔG° (VhCBP F411A; F411A versus WT): +1.6 ± 0.3 kcal.mol^−1
Kd (VhCBP F411A; ITC, F411A, 20 mM Tris-HCl pH 8.0, 25 °C, mean ± SD): 400 ± 70 nM
ΔG° (VhCBP F411A; ITC, F411A, pH 8.0, 25 °C): -8.7 ± 0.1 kcal/mol
ΔH° (VhCBP F411A; ITC, F411A, pH 8.0, 25 °C): -3.3 ± 0.1 kcal/mol
−TΔS° (VhCBP F411A; ITC, F411A, pH 8.0, 25 °C): -5.4 ± 0.1 kcal/mol
ΔΔG° (VhCBP E10A; E10A versus WT): +1.9 ± 0.2 kcal.mol^−1
Kd (VhCBP E10A; ITC, E10A, 20 mM Tris-HCl pH 8.0, 25 °C, mean ± SD): 710 ± 70 nM
ΔG° (VhCBP E10A; ITC, E10A, pH 8.0, 25 °C): -8.4 ± 0.1 kcal/mol
ΔH° (VhCBP E10A; ITC, E10A, pH 8.0, 25 °C): -8.8 ± 0.1 kcal/mol
−TΔS° (VhCBP E10A; ITC, E10A, pH 8.0, 25 °C): 0.4 ± 0.2 kcal/mol
ΔΔG° (VhCBP F437A; F437A versus WT): +4.1 ± 0.3 kcal.mol^−1
Kd (VhCBP F437A; ITC, F437A, 20 mM Tris-HCl pH 8.0, 25 °C, mean ± SD): 29.7 ± 0.5 µM
ΔG° (VhCBP F437A; ITC, F437A, pH 8.0, 25 °C): -6.2 ± 0.0 kcal/mol
ΔH° (VhCBP F437A; ITC, F437A, pH 8.0, 25 °C): -11.0 ± 0.4 kcal/mol
